Experimental data taken from paper PMC12389534, “Unlocking Therapeutic Potential of Novel Thieno-Oxazepine Hybrids as Multi-Target Inhibitors of AChE/BChE and Evaluation Against Alzheimer’s Disease: In Vivo, In Vitro, Histopathological, and Docking Studies” (Pharmaceuticals, 2025).

What was measured:
BACE1 = experiment: Brain BACE1 level (ELISA); assay type: in vivo, rat; parameters: reduction of BACE1 levels: concentration or dose not given beside the values; details: AlCl3-induced AD rats
Protocol: (§1) The brain tissues of the rats were removed and rigorously washed in isotonic saline 24 h after they were euthanized following the last behavioral test. For histological investigation, four brains per group were preserved for the whole night in 10% neutral buffered formalin. The remaining six brains were split into two sections each. In order to create a 10% homogenate (w/v), the first component was instantaneously homogenized using an ice-cold solution that included 300 mM sucrose and 50 mM Tris-HCl (pH 7.4). The homogenate was centrifuged at 1800× g for 10 min at 4 °C for biochemical tests, and the supernatant was thereafter kept at −20 °C. The second portion was set aside for use in RT-PCR analysis at −80 °C [94]. […]

5-HT = experiment: Brain 5-HT level (fluorometric); assay type: in vivo, rat; details: AlCl3-induced AD rats
Protocol: (§2) The brain tissues of the rats were removed and rigorously washed in isotonic saline 24 h after they were euthanized following the last behavioral test. For histological investigation, four brains per group were preserved for the whole night in 10% neutral buffered formalin. The remaining six brains were split into two sections each. In order to create a 10% homogenate (w/v), the first component was instantaneously homogenized using an ice-cold solution that included 300 mM sucrose and 50 mM Tris-HCl (pH 7.4). The homogenate was centrifuged at 1800× g for 10 min at 4 °C for biochemical tests, and the supernatant was thereafter kept at −20 °C. The second portion was set aside for use in RT-PCR analysis at −80 °C [94].
(§3) Brain monoamine levels were promptly assessed following the rats’ euthanasia to prevent changes in the substance’s concentration. Dopamine (DA), norepinephrine (NE), and serotonin (5-HT) fluorometric tests were conducted on brain tissue homogenate using the Ciarlone method. […] The concentrations were articulated as nanograms per gram of fresh tissue using the fluorescence of reference solutions [95].

DA = experiment: Brain DA level (fluorometric); assay type: in vivo, rat; details: AlCl3-induced AD rats
Protocol: as §2, §3

NE = experiment: Brain NE level (fluorometric); assay type: in vivo, rat; details: AlCl3-induced AD rats
Protocol: as §2, §3

BDNF = experiment: Brain BDNF level (ELISA); assay type: in vivo, rat; details: AlCl3-induced AD rats
Protocol: as §2
(§4) See Supplementary Information.

AChE = assay type: in vivo; parameters: reduction in AChE levels: concentration or dose not given beside the values; details: AlCl3-induced AD rats
TNF-α = experiment: Brain TNF-α level (ELISA); assay type: in vivo, rat; details: AlCl3-induced AD rats
Protocol: as §1

IL-1β = experiment: Brain IL-1β level (ELISA); assay type: in vivo, rat; parameters: reduction in IL-1β levels: concentration or dose not given beside the values; details: AlCl3-induced AD rats
Protocol: as §1

TLR4 = TLR4 mRNA expression (RT-qPCR); assay type: in vivo, rat; parameters: reduction of TLR4 mRNA expression: concentration or dose not given beside the values; details: AlCl3-induced AD rats
Protocol: as §2, §4

NFκβ = NFκβ mRNA expression (RT-qPCR); assay type: in vivo, rat; parameters: reduction of NFκβ mRNA expression: concentration or dose not given beside the values; details: AlCl3-induced AD rats
Protocol: as §2, §4

NLRP3 = NLRP3 mRNA expression (RT-qPCR); assay type: in vivo, rat; parameters: reduction of NLRP3 mRNA expression: concentration or dose not given beside the values; details: AlCl3-induced AD rats
Protocol: as §2, §4

Caspase-1 = Caspase-1 gene expression (RT-qPCR); assay type: in vivo, rat; parameters: reduction of Caspase-1 levels: concentration or dose not given beside the values; details: AlCl3-induced AD rats
Protocol: as §2, §4

BAX = BAX gene expression (RT-qPCR); assay type: in vivo, rat; details: gene expression; AlCl3-induced AD rats; mean ± SE, n = 6
Protocol: as §2, §4

Bcl-2 = Bcl-2 gene expression (RT-qPCR); assay type: in vivo, rat; details: AlCl3-induced AD rats
Protocol: as §2, §4

Wnt3a = experiment: Brain Wnt3a level; assay type: in vivo, rat; details: AlCl3-induced AD rats
Protocol: as §2, §4

GSK3β = GSK3β gene expression (RT-qPCR); assay type: in vivo, rat; details: gene expression; AlCl3-induced AD rats; mean ± SE, n = 6
Protocol: as §2, §4

β-catenin = experiment: Brain β-catenin level; assay type: in vivo, rat; details: AlCl3-induced AD rats
Protocol: as §2, §4

SOD = experiment: Brain SOD activity (colorimetric); assay type: in vivo, rat; details: brain tissue, AlCl3-induced AD rats; mean ± SE, n = 6
Protocol: as §2
(§5) The SOD enzyme activity was estimated using the Marklund et al. method, which is founded on the enzyme’s capacity to decrease the nitro blue tetrazolium dye at a wavelength of 540 nm. To evaluate the TAC, a colorimetric approach was employed to estimate the amount of hydrogen peroxide that remains after 3,5-dichloro-2-hydroxybenzene sulphonate is converted to a colored product at 660 nm.

TAC = experiment: Brain TAC (colorimetric); assay type: in vivo, rat; details: AlCl3-induced AD rats
Protocol: as §2, §5

MDA = experiment: Brain MDA content (thiobarbituric acid method); assay type: in vivo, rat; parameters: reduction in MDA brain content: concentration or dose not given beside the values; details: AlCl3-induced AD rats
Nrf-2 = Nrf-2 mRNA expression (RT-qPCR); assay type: in vivo, rat; details: AlCl3-induced AD rats
Protocol: as §2, §4

HO-1 = HO-1 mRNA expression (RT-qPCR); assay type: in vivo, rat; details: AlCl3-induced AD rats
Protocol: as §2, §4

BChE = molecular target: T1, BChE (Homo sapiens, UniProt P06276); experiment: biochemical
T1 construct: purchased Invitrogen EIABCHEF
T1 sequence (P06276 29-602): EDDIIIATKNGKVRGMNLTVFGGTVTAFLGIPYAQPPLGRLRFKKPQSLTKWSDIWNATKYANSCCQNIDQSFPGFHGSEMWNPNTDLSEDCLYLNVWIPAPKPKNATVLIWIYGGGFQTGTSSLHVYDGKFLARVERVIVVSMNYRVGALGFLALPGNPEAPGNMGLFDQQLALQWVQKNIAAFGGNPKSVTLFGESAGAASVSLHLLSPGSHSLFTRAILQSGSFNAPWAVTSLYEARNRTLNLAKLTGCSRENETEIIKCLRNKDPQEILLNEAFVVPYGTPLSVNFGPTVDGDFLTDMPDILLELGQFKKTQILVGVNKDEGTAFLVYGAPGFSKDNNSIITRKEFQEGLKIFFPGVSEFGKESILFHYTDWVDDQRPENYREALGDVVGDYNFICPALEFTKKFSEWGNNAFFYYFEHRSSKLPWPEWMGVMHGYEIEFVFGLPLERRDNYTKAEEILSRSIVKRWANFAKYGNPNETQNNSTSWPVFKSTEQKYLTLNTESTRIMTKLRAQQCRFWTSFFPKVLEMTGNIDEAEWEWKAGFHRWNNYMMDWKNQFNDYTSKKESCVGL
Protocol: Using an Invitrogen BChE test kit (Catalog #EIABCHEF), the assay was performed in compliance with the supplier’s instructions. The study was conducted using black 96-well plates. […] Each well was then filled with 50 μL of the reaction mixture, which consisted of fluorescence detection reagent and butyrylthiocholine iodide in assay buffer. The plate was then left to incubate for 20 min at room temperature. Finally, excitation at 390 nm was used to observe emission at 510 nm using a microplate reader. Background fluorescence was further eliminated for each data point.

BAX/Bcl-2 = BAX/Bcl-2 ratio of gene expression; assay type: in vivo, rat; details: AlCl3-induced AD rats
Protocol: as §2, §4

[1] = mRNA expression level, mean ± SE, n = 6
[2] = gene expression, mean ± SE, n = 6
[3] = mRNA expression in brain tissue, mean ± SE, n = 6

For `CCOc1ccc(N2CC(=O)Oc3sc4c(c3C2=O)CCCCC4)cc1` [Compound 14, 4-(4-Ethoxyphenyl)-3,4,7,8,9,10-hexahydro-6H-cyclohepta[4,5]thieno[3,2-f][1,4]oxazepine-2,5-dione], the “reduction of BACE1 levels” value (BACE1) was 43.8%, the “BACE1 (ng/mL)” value (BACE1; mean ± SE, n = 6) was 16.66 ± 0.38 ^abc ng/mL and the “elevation of 5-HT levels” value (5-HT) was 4.5 fold. The “5-HT (ng/g Tissue)” value (5-HT; brain tissue, mean ± SE, n = 6) was 8.22 ± 0.19 ^abc ng/g Tissue, the “elevation of DA levels” value (DA) was 4.3 fold and the “DA (ng/g Tissue)” value (DA; brain tissue, mean ± SE, n = 6) was 51.88 ± 2.66 ^abc ng/g Tissue. The “rise in the level of NE” value (NE) was 2.1 times, the “NE (nmol/g Tissue)” value (NE; brain tissue, mean ± SE, n = 6) was 386.7 ± 2.66 ^abc nmol/g Tissue and the “elevation of BDNF levels” value (BDNF) was 2.7 fold. The “BDNF (ng/mL)” value (BDNF; brain tissue, mean ± SE, n = 6) was 115.8 ± 0.07 ^abc ng/mL, the “AChE (ng/g Tissue)” value (AChE; brain tissue, mean ± SE, n = 6) was 19.4 ± 0.39 ^abc ng/g Tissue and the “reduction in AChE levels” value (AChE; brain) was 71.2%. For the same molecule, the “decline in TNF-α levels” value (TNF-α) was 58.4%, the “TNF-α (pg/g Tissue)” value (TNF-α; mean ± SE, n = 6) was 73.21 ± 0.58 ^abc pg/g Tissue and the “reduction in IL-1β levels” value (IL-1β) was 49.3%. The “IL-β (pg/g Tissue)” value (IL-1β; mean ± SE, n = 6) was 59.92 ± 0.98 ^abc pg/g Tissue, the “reduction of TLR4 mRNA expression” value (TLR4) was 62.6% and the TLR4 (TLR4; [1]) was 3.60 ± 0.12 ^abc. For the same molecule, the “reduction of NFκβ mRNA expression” value (NFκβ) was 56%, the NFκβ (NFκβ; [1]) was 3.73 ± 0.04 ^abc and the “reduction of NLRP3 mRNA expression” value (NLRP3) was 63.2%. For the same molecule, the NLRP3 (NLRP3; [1]) was 3.92 ± 0.04 ^abc, the “reduction of Caspase-1 levels” value (Caspase-1) was 46.6% and the Caspase-1 (Caspase-1; [2]) was 5.08 ± 0.050 ^abc. For the same molecule, the BAX (BAX) was 5.49 ± 0.100 ^abc, the “upregulation of Bcl-2 gene expression” value (Bcl-2) was 5.8 fold and the Bcl-2 (Bcl-2; [2]) was 0.70 ± 0.004 ^abc. The “elevation of Wnt3a levels” value (Wnt3a) was 4 fold, the “Wnt3a (ng/g Tissue)” value (Wnt3a; mean ± SE, n = 6) was 0.66 ± 0.02 ^abc ng/g Tissue and the GSK3β (GSK3β) was 3.13 ± 0.07 ^abc. The “elevation of β-catenin levels” value (β-catenin) was 5.3 fold, the “β-Catenin (ng/L)” value (β-catenin; mean ± SE, n = 6) was 8.4 ± 0.09 ^abc ng/L and the “SOD(U/g)” value (SOD) was 2.38 ± 0.78 ^abc U/g. For the same molecule, the “improvement of TAC levels” value (TAC) was 3.8 times, the “TAC (µmol/g Tissue)” value (TAC; brain tissue, mean ± SE, n = 6) was 36.96 ± 0.51 ^abc µmol/g Tissue and the “reduction in MDA brain content” value (MDA) was 59%. The “MDA (nmol/g Tissue)” value (MDA; brain tissue, mean ± SE, n = 6) was 47.6 ± 0.12 ^abc nmol/g Tissue, the “elevation of Nrf-2 mRNA expression” value (Nrf-2) was 3.1 fold and the Nrf-2 (Nrf-2; [3]) was 0.50 ± 0.020 ^abc. The “elevation of HO-1 mRNA expression” value (HO-1) was 5.3 fold, the HO-1 (HO-1; [3]) was 0.64 ± 0.009 ^abc and the IC50 (BChE; fluorescence kit, triplicate) was 2.93 ± 0.1 µM. The “Selectivity Index BChE/AChE” value (BChE; ratio of IC50 BChE to IC50 AChE, <1 = preferential BChE inhibition) was 7.50 and the “BAX/Bcl-2 Ratio” value (BAX/Bcl-2) was 7.84.
